Columns and labels:
Format in all cases: physicochemical
[1] = Particle size distribution of sieved powders; conditions: sieved particles < 250 μm
Method: All samples (i.e., FFA, FFA-NIC cocrystal and FFA-TP cocrystal) used in the dissolution tests were slightly ground by a mortar and pestle and sieved by a 60-mesh sieve (below 250 μm) to reduce the influence of particle size on the dissolution rates. The particle size distributions of the test samples were measured using a SYNC Analyzer (MICROTRAC Retsch GmbH, Hann, Germany). The particle size distributions (D10, D50, D90 and mean particle size) of the solid particles were compared. The data were analysed by the Microtrac FLEX software (12.0.0.1).

[2] = Dissolution tests of powder mixtures of FFA-NIC cocrystal with polymers in PBS pH 6.8 (sink); conditions: for FFA DPP: reference neat cocrystal in PBS pH 6.8; for incongruent indicator k(t) (molar FFA/NIC in solution): PBS pH 6.8, sink conditions
Method: Similarly, in vitro dissolution tests of the powder mixtures of 71.7 mg of the FFA-NIC cocrystals with an individual polymer or a combination in PBS pH 4.5 or PBS pH 6.8 were conducted in triplicate. The amount of a polymer used in the powder mixture was 80 mg of PVP-VA, 400 mg of PEG, or 80 mg of SLP, corresponding to their predissolved concentrations used in Section "Dissolution Tests of FFA, the Neat FFA-TP Cocrystal or FFA-NIC Cocrystal Powders in DDW in the Absence and Presence of a Predissolved Polymer or a Combination".
(§1) DPP was used to evaluate the dissolution profile of the test powders in comparison to a reference system, which is defined as,4 DPP=AUCC(t)-AUCCR(t)/AUCCR(t)×100% where AUCC(t) is the area under the curve (AUC) of a dissolution profile C(t) , indicating the amount of drug dissolved is maintained over the period of the dissolution time from 0 to t, and AUCCR(t) is the AUC of a reference dissolution profile CR(t) .

[3] = Dissolution tests of powders in DDW with predissolved polymer or combination (USP type II paddle); conditions: for incongruent indicator k(t) (molar FFA/NIC in solution): neat cocrystal
Method: In vitro dissolution tests were performed with a USP type II paddle apparatus (DT 126 light, Erweka GmbH, Germany) at 37 ± 0.5°C with a paddle speed of 50 rpm in 400 mL of DDW in the absence and presence of a predissolved polymer (i.e., 0.2 mg/mL of PVP-VA, 1 mg/mL of PEG, 0.2 mg/mL of SLP) or a combination of two polymers (i.e., 0.2 mg/mL PVP-VA + 1 mg/mL PEG, […]).
71.7 mg of FFA-NIC cocrystal powders with the equivalent of 50 mg FFA I powders were used in each of the dissolution tests. Samples of 1 ± 0.1 mL were withdrawn from the dissolution vessel at the predefined time points of 5, 10, 15, 30, 60, 120, 180 and 240 min. The supernatant of each of the samples was separated from the excess solids by centrifugation at 13,000 RPM for 1 min in an MSE Micro Centaur. HPLC was used to determine the concentrations of FFA and NIC in solution. Solid residues obtained from the experiments were dried at room temperature and analysed by PXRD. All experiments were repeated in triplicate.
For comparison, the above dissolution tests were also repeated using 50 mg of pure FFA I powders and 82.0 mg of FFA-TP cocrystal powders.
as §1
The solids were scanned by D2 phaser diffractometer (Bruker U.K. Limited, Coventry, UK) with […] radiation operating at voltage of 30 kV and current of 10 mA. The scanning angle ranged from 2°-40° of 2θ. The scanning time per step was 0.4 s. The scan step size was 0.02° of 2θ.

[4] = DDW, combination of predissolved PVP-VA and PEG
[5] = DDW, no polymer, powder dissolution

NC(=O)c1cccnc1.O=C(O)c1ccccc1Nc1cccc(C(F)(F)F)c1 [FFA-NIC cocrystal] gave a D10 [1] of 6.08 μm, a D50 [1] of 13.77 μm and a D90 [1] of 33.97 μm. The Mean particle size [1] was 17.63 μm, the “solid residues after dissolution” value ([2]; PBS pH 6.8, 37°C, after 4 h) was “no solid residue” and the “FFA DPP” value ([2]; PBS pH 6.8, powder mixture with PVP-VA (0.2 mg/mL)) was 11%. The “FFA DPP” value ([2]; PBS pH 6.8, powder mixture with PVP-VA (0.4 mg/mL)) was 7%, the “incongruent constant k(t)” value ([2]; PBS pH 6.8, powder mixture with PVP-VA, at 60 min) was greater than 0.94 and the “FFA DPP” value ([2]; PBS pH 6.8, powder mixture with SLP (0.1 mg/mL) + PVP-VA (0.4 mg/mL)) was 8%. For the same compound, the “FFA DPP” value ([2]; PBS pH 6.8, powder mixture with SLP (0.2 mg/mL) + PVP-VA (0.2 mg/mL)) was 6%, the “FFA DPP” value ([2]; PBS pH 6.8, powder mixture with SLP (0.2 mg/mL) + PVP-VA (0.4 mg/mL)) was 9% and the “FFA DPP” value ([2]; PBS pH 6.8, powder mixture with SLP (0.2 mg/mL)) was -0.1%. For the same compound, the “incongruent indicator k(t) (molar FFA/NIC in solution)” value ([2]; at 5 min) was 0.75, the “incongruent indicator k(t) (molar FFA/NIC in solution)” value ([2]; at the end of dissolution) was 0.94 and the “solid residues after dissolution tests (PXRD)” value (“solid residues … (PXRD)” for short) ([3]; DDW in the absence or presence of predissolved polymers) was “FFA III”. For the same compound, the “FFA concentration at 240 min” value [3, 4] was 11.44 µg/mL, the “maximum FFA concentration” value [3, 4] was 14.28 µg/mL and the “time to generate supersaturated state of FFA concentration” value [3, 4] was no more than 5 min. For the same compound, the “solid residues … (PXRD)” value ([3]; DDW, combinations of predissolved PVP-VA and SLP at various concentrations except SLP (0.2 mg/mL) + PVP-VA (0.8 mg/mL)) was “FFA III alone”, the “incongruent indicator k(t) (molar FFA/NIC in solution)” value ([3]; DDW, at 5 min) was 0.06 and the “incongruent indicator k(t) (molar FFA/NIC in solution)” value ([3]; DDW, at 60 min) was 0.08. For the same compound, the “FFA concentration reached within 60 min” value [3, 5] was 10.23 µg/mL, the “FFA concentration, constant level after 60 min” value [3, 5] was 10.78 µg/mL and the “time for FFA concentration to reach aqueous equilibrium solubility” value ([3]; DDW, predissolved 0.2 mg/mL PVP-VA) was no more than 15 min. For the same compound, the “maximum FFA concentration” value ([3]; DDW, predissolved 0.2 mg/mL PVP-VA, at 60 min) was 12.93 µg/mL, the “FFA DPP (dissolution performance parameter)” value ([3]; DDW, predissolved PEG (1 mg/mL), 0-4 h, reference same powder in DDW) was -7% and the “FFA DPP (dissolution performance parameter)” value ([3]; DDW, predissolved PVP-VA (0.2 mg/mL), 0-4 h, reference same powder in DDW) was 19%. The “NIC release from cocrystal powders” value ([3]; DDW, predissolved PVP-VA or its combination with PEG or SLP) was “released completely”, the “FFA concentration in solution after 4 h” value ([3]; DDW, predissolved SLP (0.2 mg/mL)) was 26.18 µg/mL and the “FFA DPP (dissolution performance parameter)” value ([3]; DDW, predissolved SLP (0.2 mg/mL) + PVP-VA (0.1 mg/mL), reference DDW) was 112%. The “FFA DPP (dissolution performance parameter)” value ([3]; DDW, predissolved SLP (0.2 mg/mL) + PVP-VA (0.2 mg/mL), 0-4 h, reference same powder in DDW) was 160%, the “FFA DPP (dissolution performance parameter)” value ([3]; DDW, predissolved SLP (0.2 mg/mL) + PVP-VA (0.3 mg/mL), reference DDW) was 296% and the “FFA DPP (dissolution performance parameter)” value ([3]; DDW, predissolved SLP (0.2 mg/mL) + PVP-VA (0.4 mg/mL), reference DDW) was 345%. The “FFA DPP (dissolution performance parameter)” value ([3]; DDW, predissolved SLP (0.2 mg/mL) + PVP-VA (0.8 mg/mL), reference DDW) was 310%, the “solid residues … (PXRD)” value ([3]; DDW, predissolved SLP (0.2 mg/mL) and PVP-VA (0.8 mg/mL)) was “mixtures of FFA III and FFA-NIC cocrystal” and the “FFA DPP (dissolution performance parameter)” value ([3]; DDW, predissolved SLP (0.2 mg/mL), 0-4 h, reference same powder in DDW) was 67%. For the same compound, the “NIC release from cocrystal powders” value ([3]; DDW, single polymer of PEG or SLP) was “not complete” and the “solid residues … (PXRD)” value ([3]; SLP predissolved DDW) was “both FFA III and FFA-NIC cocrystal”.

Source: paper PMC10447287, “Optimisation of Pharmaceutical Cocrystal Dissolution Performance through a Synergistic Precipitation Inhibition” (Pharmaceutical Research, 2023)
